Columns and labels:
MMTV-PyMT tumors [1] = test: Gemcitabine tumor growth in Lyve1^Cre and Lyve1^WT MMTV-PyMT Hmox1^fl/fl mice; format: in vivo, mouse; settings: gemcitabine 6.6mg/kg/7days
Text: Figure 1 LYVE-1^+ PvTAMs modulate the immune landscape and resistance to chemotherapy in cancer through their expression of HO-1. (A) Representative image of a frozen section of MMTV-PyMT tumor stained with DAPI (nuclei; blue) and antibodies against F4/80 (magenta), HO-1 (red), CD31 (green). Colocalizing pixels for F4/80 and HO-1 are shown in yellow. Scale bar is 50 µm. (B-E) Schematic depicting the transgene of the HO-1 reporter mice (HO-1^Luc/eGFP) (top panel) and representative dot plot of FACs-gated live (7AAD^-) cells from enzyme-dispersed MMTV-PyMT HO-1^Luc/eGFP tumors separated based on their respective expression of HO-1 (eGFP) and CD45 (bottom panel) (B). HO-1/eGFP normalized median fluorescent intensity (MFI) of the indicated tumoral cell populations with background MFI subtracted from WT mice (n=5) (C). Representative contour plot of FACs-gated live (7AAD^-), CD45^+F4/80^+ TAMs separated based on their expression of CD206 and MHCII (left) and histograms showing the HO-1/eGFP expression of the subsets alongside the background fluorescence in WT mice (right) (D). Representative histograms of the TAM populations identified in (D) for their surface expression of LYVE-1 alongside their respective fluorescence minus one (FMO) staining (E). (F) Quantitation of the respective TAM populations identified in (D) across MMTV-PyMT tumors (n=10). […]

MMTV-PyMT tumors [2] = test: Tumor growth in MMTV-PyMT mice bearing established spontaneous tumors; format: in vivo, mouse; settings: single agent, i.p. 25 µMol/kg/day
Method: Vertical dashed black lines mark the start of treatment (day 0) and horizontal red line marks 250 mm^3. Solid lines represent individual tumors and mice. Images in panel (A) and (B) were created using BioRender. ** P<0.01.
(D-G) The MMTV-PyMT mice in (B) were evaluated for evidence of toxicity, including weight change from treatment initiation (D), end of treatment (day 21) plasma ratio of AST:ALT enzymes (E), blood circulating immune cells assessed using flow cytometry (F) and pathology assessment of inflammatory cell infiltrate in the lungs alongside an additional cohort or WT non-tumor bearing mice given dual treatment for 21 days and then assessed at treatment cessation or 30 days after treatment cessation (G). Image in panel (A) was created using BioRender. Bar charts show the mean, error bars SD, and the dots show individual data points from individual tumors and mice. Line charts display the mean and SEM. Gemc.; gemcitabine. * P<0.05, ** P<0.01.
MN-MCA1 sarcoma cells were orthotopically implanted into syngeneic C57Bl/6 mice for tumors. A total of 2.5 x 10^5 cells in 100 μL RPMI were injected subcutaneously into female mice. In MMTV-PyMT mice, tumors arose spontaneously. When tumors became palpable, volumes were measured every 2-4 days using digital caliper measurements of the long (L) and short (S) dimensions of the tumor. […]

Compound	tumor growth (MMTV-PyMT tumors [1]; Lyve1^Cre mice)	tumor growth (MMTV-PyMT tumors [1]; Lyve1^WT mice)	tumor growth (MMTV-PyMT tumors [2])
Nc1ccn([C@@H]2O[C@H](CO)[C@@H](O)C2(F)F)c(=O)n1 [gemcitabine]	long-term durable control of tumor growth	insensitive	–
Sn (IV) mesoporphyrin IX dichloride [SnMP]	–	–	did not control tumor growth

— article PMC7618036, “An oral heme oxygenase inhibitor targets immunosuppressive perivascular macrophages in preclinical models of cancer” (Science translational medicine, 2025)
